Source: US20190144375A1, “NOVEL CARBOCYCLIC COMPOUNDS AS ROR GAMMA MODULATORS” (Glenmark Pharmaceuticals S.A., priority 2015, published 2019)

Molecular target: T1, GST-tagged ROR gamma ligand binding domain (LBD) (Homo sapiens, UniProt P51449)
T1 construct: purchased Invitrogen
T1 sequence (P51449 269-508 limits assumed): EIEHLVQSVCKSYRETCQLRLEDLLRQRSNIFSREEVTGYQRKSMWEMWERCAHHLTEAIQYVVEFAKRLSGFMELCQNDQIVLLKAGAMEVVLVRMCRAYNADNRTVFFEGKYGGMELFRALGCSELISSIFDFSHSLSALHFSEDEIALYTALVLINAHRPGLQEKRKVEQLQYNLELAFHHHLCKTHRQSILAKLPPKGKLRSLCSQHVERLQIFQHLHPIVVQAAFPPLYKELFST
Test: TR-FRET assay for ROR gamma (LanthaScreen, Fluorescein-D22 co-activator peptide recruitment)
Format: biochemical
Conditions: for inhibition at 1 µM: 1 μM compound; for inhibition at 1 µM / inhibition at 10 µM: TR-FRET ratio 520/495; for inhibition at 10 µM: 10 μM compound; for IC50: dose response curve, class symbols
Excerpt: The compounds described herein were screened for ROR gamma modulator activity using the TR-FRET assay (LanthaScreen™ available from Invitrogen of Carlsbad, Calif.) as described in JBC 2011, 286, 26: 22707-10; and Drug Metabolism and Disposition 2009, 37, 10: 2069-78.
The assay is based on the principle that binding of the agonist to the ROR gamma causes a conformational change around helix 12 in the ligand binding domain, resulting in higher affinity for the co-activator peptide. ROR gamma being constitutively active, the Fluorescein-D22 co-activator peptide used in the assay is recruited in the absence of a ligand. Binding of the co-activator peptide, causes an increase in the TR-FRET signal while binding of an antagonist decreases the recruitment of the co-activator peptide, causing a decrease in the TR-FRET signal compared to control with no compound. The assay was performed using a two-step procedure, pre-incubation step with the compound followed by the detection step on addition of the anti-GST tagged terbium (Tb) and fluorescein tagged fluorophores as the acceptor.
Test compounds or reference compounds such as T0901317 (Calbiochem) were dissolved in dimethylsulfoxide (DMSO) to prepare 10.0 mM stock solutions and diluted to the desired concentration. The final concentration of DMSO in the reaction was 4% (v/v). The assay mixture was prepared by mixing 10 nM of the GST-tagged ROR gamma ligand binding domain (LBD) in the assay buffer containing 25 mM HEPES, 100 mM NaCl, 5 mM DTT and 0.01% BSA with or without the desired concentration of the compound. The reaction was incubated at 22° C. for 1 hour. The pre-incubation step was terminated by addition of the detection mixture containing 300 nM Fluorescein-D22 co-activator peptide and 10 nM lantha screen Tb-anti GST antibody into the reaction mixture. After shaking for 5 minutes the reaction was further incubated for 1 hour at room temperature and read […] on an Infinite F500 reader as per the kit instructions (Invitrogen). The inhibition of test compound was calculated based on the TR-FRET ratio of 520/495. The activity was calculated as a percent of control reaction. IC50 values were calculated from dose response curve by nonlinear regression analysis using GraphPad Prism software.
Percentage inhibition at concentrations of 1.0 μM and 10.0 μM are given in the table along with IC50 (nM) details for selected examples.

SMILES	inhibition at 1 µM [%]	inhibition at 10 µM [%]	IC50 [nM]
Cc1ccc(N(C)C(=O)c2ccc(NC(=O)Cc3ccc(C(F)(F)[C@@H](C)O)cc3)cc2)c(Cl)c1 [Example 29, (R)—N-(2-Chloro-4-methylphenyl)-4-(2-(4-(1,1-difluoro-2-hydroxypropyl)phenyl)acetamido)-N-methylbenzamide]	80.7	87.1	< 50
Cc1ccc(N(C)C(=O)c2ccc(NC(=O)Cc3ccc(C(F)(F)C(C)O)cc3)cc2)c(Cl)c1 (stereo not drawn) [Example 23]	88.8	93.2	< 50
COCC(F)(F)c1ccc(CC(=O)Nc2ccc(C(=O)N(C)c3cc(C)cc(C)c3)cc2)cc1 [Example 10]	93.2	95.3	< 50
CC(O)C(F)(F)c1ccc(CC(=O)Nc2ccc(C(=O)N(C)c3ccc(C4CC4)cc3Cl)cc2)cc1 (stereo not drawn) [Example 38]	92.6	94.8	< 50
Cc1cccc(Cl)c1N(C)C(=O)c1ccc(NC(=O)Cc2ccc(C(F)(F)C(C)O)cc2)cc1 (stereo not drawn) [Example 31]	79.1	86.6	50 to 100
CCC(F)(F)c1ccc(CC(=O)Nc2ccc(C(=O)N(CC(F)(F)F)c3cccc(Cl)c3)cc2)cc1 [Example 14]	84	87.6	< 50
Cc1cc(C)cc(N(C)C(=O)c2ccc(NC(=O)Cc3ccc(C(F)(F)C(C)(C)O)cc3)cc2)c1 [Example 9, 4-(2-(4-(1,1-difluoro-2-hydroxy-2-methylpropyl)phenyl)acetamido)-N-(3,5-dimethylphenyl)-N-methylbenzamide]	86.2	97	> 100
Cc1cc(C)c(N(C)C(=O)c2ccc(NC(=O)Cc3ccc(C(F)(F)C(C)O)cc3)cc2)c(C)c1 (stereo not drawn) [Example 32]	84.9	95	50 to 100
Cc1cc(C)cc(N(C)C(=O)c2ccc(NC(=O)Cc3ccc(C(F)(F)CO)cc3)cc2)c1 [Example 7]	87.5	95.1	< 50
CN(C(=O)c1ccc(NC(=O)Cc2ccc(C(F)(F)C(N)=O)cc2)cc1)c1ccc(Cl)cc1 [Example 2, 4-(2-(4-(2-amino-1,1-difluoro-2-oxoethyl)phenyl)acetamido)-N-(4-chlorophenyl)-N-methylbenzamide]	20.7	43.4	–
CC(O)C(F)(F)c1ccc(CC(=O)Nc2ccc(C(=O)N(C)c3cc(Cl)cc(Cl)c3)cc2)cc1 (stereo not drawn) [Example 21, N-(3,5-dichlorophenyl)-4-(2-(4-(1,1-difluoro-2-hydroxypropyl)phenyl)acetamido)-N-methylbenzamide]	82.2	87.9	< 50
CCC(F)(F)c1ccc(CC(=O)Nc2ccc(C(=O)N(C)c3ccccc3Cl)cc2)cc1 [Example 6]	90.9	91.2	< 50
Cc1cc(-c2ccccc2F)cc(N(C)C(=O)c2ccc(NC(=O)Cc3ccc(C(F)(F)C(C)O)cc3)cc2)c1 (stereo not drawn) [Example 12]	89.4	93.7	50 to 100
CC(O)C(F)(F)c1ccc(CC(=O)Nc2ccc(C(=O)N(C)c3ccccc3Cl)cc2)cc1 (stereo not drawn) [Example 15]	85.5	92.8	< 50
Cc1cc(Cl)ccc1N(C)C(=O)c1ccc(NC(=O)Cc2ccc(C(F)(F)C(C)O)cc2)cc1 (stereo not drawn) [Example 24]	82.6	88.7	< 50
Cc1ccc(N(C)C(=O)c2ccc(NC(=O)Cc3ccc(C(F)(F)[C@H](C)O)cc3)cc2)c(Cl)c1 [Example 30, (S)—N-(2-Chloro-4-methylphenyl)-4-(2-(4-(1,1-difluoro-2-hydroxypropyl)phenyl)acetamido)-N-methylbenzamide]	85.5	88.7	< 50

SMILES	inhibition at 1 µM [%]	inhibition at 10 µM [%]	IC50 [nM]
CC(O)C(F)(F)c1ccc(CC(=O)Nc2ccc(C(=O)N(C)c3cc(Cl)ccc3Cl)cc2)cc1 (stereo not drawn) [Example 5, N-(2,5-Dichlorophenyl)-4-(2-(4-(1,1-difluoro-2-hydroxypropyl)phenyl)acetamido)-N-methylbenzamide]	87.6	94.3	< 50
CCC(F)(F)c1ccc(CC(=O)Nc2ccc(C(=O)N(C)c3cc(C)cc(C)c3)cc2)cc1 [Example 11]	90.1	92.9	< 50
CC(O)C(F)(F)c1ccc(CC(=O)Nc2ccc(C(=O)N(C)c3ccc(Cl)cc3Cl)cc2)cc1 (stereo not drawn) [Example 25]	82	90	< 50
Cc1ccc(F)c(N(C)C(=O)c2ccc(NC(=O)Cc3ccc(C(F)(F)C(C)O)cc3)cc2)c1 (stereo not drawn) [Example 28]	90.5	93.9	< 50
Cc1ccc(N(C)C(=O)c2ccc(NC(=O)Cc3ccc(C(F)(F)C(C)O)cc3)cc2)c(C2CC2)c1 (stereo not drawn) [Example 34]	91.8	92.6	< 50
CCC(F)(F)c1ccc(CC(=O)Nc2ccc(C(=O)N(C)[C@@H](c3ccc(Cl)cc3)C3CC3)cc2)cc1 [Example 18]	87.4	90	< 50
Cc1ccc(Cl)c(N(C)C(=O)c2ccc(NC(=O)Cc3ccc(C(F)(F)C(C)O)cc3)cc2)c1 (stereo not drawn) [Example 27]	90.1	92	< 50
Cc1cc(N(C)C(=O)c2ccc(NC(=O)Cc3ccc(C(F)(F)C(C)O)cc3)cc2)c(F)cc1Cl (stereo not drawn) [Example 37]	93.9	96.3	< 50
CCOC(=O)C(F)(F)c1ccc(CC(=O)Nc2ccc(C(=O)N(C)c3ccc(Cl)cc3)cc2)cc1 [Example 1, Ethyl 2-(4-(2-((4-((4-chlorophenyl)(methyl)carbamoyl)phenyl)amino)-2-oxoethyl)phenyl)-2,2-difluoroacetate]	27.6	64.5	–
CCC(F)(F)c1ccc(CC(=O)Nc2ccc(C(=O)N(C)[C@@H](C)c3ccc(Cl)cc3)cc2)cc1 [Example 20]	61.5	75	–
Cc1ccc(C2CC2)cc1N(C)C(=O)c1ccc(NC(=O)Cc2ccc(C(F)(F)C(C)O)cc2)cc1 (stereo not drawn) [Example 39]	84.1	92	< 50
Cc1cc(C)cc(N(C)C(=O)c2ccc(NC(=O)Cc3ccc(C(F)(F)[C@@H](C)O)cc3)cc2)c1 [Example 36]	89.7	94.5	< 50
CCC(F)(F)c1ccc(CC(=O)Nc2ccc(C(=O)N(C)[C@H](C)c3ccc(Cl)cc3)cc2)cc1 [Example 17]	87.1	90.8	< 50
Cc1cc(C)cc(N(C)C(=O)c2ccc(NC(=O)Cc3ccc(C(F)(F)C(C)O)cc3)cc2)c1 (stereo not drawn) [Example 8]	94.8	96.5	< 50
CC(O)C(F)(F)c1ccc(CC(=O)Nc2ccc(C(=O)N(C)[C@@H](c3ccc(Cl)cc3)C3CC3)cc2)cc1 (stereo partly drawn) [Example 19]	82.6	92.8	50 to 100
